From article PMC3894963, “Expression and Functional Characterization of Membrane-Integrated Mammalian Corticotropin Releasing Factor Receptors 1 and 2 in Escherichia coli” (PLoS ONE, 2014)
“Also recorded” adds a separate entry of the source. Ends that are not written are not given here.

Assays:
hCRFR1α [1] = molecular target: T1, hCRFR1α (Homo sapiens, UniProt P34998); experiment: Competitive displacement of labeled PD-sauvagine, hCRFR1α in E. coli membranes; assay type: binding; conditions: E. coli membranes (Figure 14)
T1 construct: The cDNAs encoding full-length mature forms of hCRFR1α and mCRFR2β were introduced into pET-26b plasmid; made in house; host or cells: E. coli (membrane fraction)
T1 sequence (P34998 24-415): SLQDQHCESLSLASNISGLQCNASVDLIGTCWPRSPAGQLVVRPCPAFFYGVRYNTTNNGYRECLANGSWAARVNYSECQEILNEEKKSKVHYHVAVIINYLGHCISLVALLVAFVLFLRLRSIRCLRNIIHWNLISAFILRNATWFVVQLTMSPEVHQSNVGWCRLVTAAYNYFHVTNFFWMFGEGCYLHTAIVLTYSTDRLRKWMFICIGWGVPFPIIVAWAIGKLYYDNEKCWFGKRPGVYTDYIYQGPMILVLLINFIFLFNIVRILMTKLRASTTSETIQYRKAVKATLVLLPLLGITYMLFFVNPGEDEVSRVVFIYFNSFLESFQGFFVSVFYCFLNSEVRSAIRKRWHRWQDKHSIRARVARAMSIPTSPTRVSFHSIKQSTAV
Protocol: Each assay included at least triplicate wells for each concentration, and the assays were repeated at least twice (except where indicated).
(§1) The saturation and competitive binding experiments are analyzed by non-linear regression with the GraphPad Prism program (www.graphpad.com) assuming binding to a single site. Specifically, for saturation binding experiments, binding is determined as a function of increasing concentrations of radioligand. The equation used is y = {(Bmax)^.[radioligand]}/{Kd+[radioligand]}, where y = the specific binding (i.e., total binding-non-specific binding). Competitive binding experiments use a constant concentration of radioligand together with increasing concentrations of competitor. […] Because [radioligand] is <Kd, the Ki = EC50. For multiple determinations, Log (EC50) values were averaged to calculate the values in Table 1. […] In Table 1, the inhibition constant (Ki) values are shown together with the standard error and ranges, calculated assuming log normal distribution.

CRFR1 = tested on: CRFR1; parameters: method as in PMID 9415408; conditions: CRFR1 in mammalian cells; cited from earlier work
mCRFR2β [2] = molecular target: T2, mCRFR2β (Mus musculus, UniProt Q60748); experiment: Competitive displacement of labeled astressin, mCRFR2β in E. coli membranes; assay type: binding; conditions: for Displacement of bound labeled astressin: mCRFR2β, E. coli membranes (Figure 11B)
T2 construct: mCRFR2β(Val25-C-term) - PhoA; made in house; host or cells: E. coli (membrane fraction)
Protocol: as §1, with “The incubation was performed at room temp for 90-120 min, at which time the plates were aspirated and each well was washed with 2×100 μl assay buffer, dried and counted in a γ-counter. Each assay included at least triplicate wells for each concentration, and the assays were repeated at least twice (except where indicated). […] The saturation” for “The saturation”

hCRFR1α [3] = molecular target: T1, hCRFR1α; experiment: Binding of labeled sauvagine, hCRFR1α in E. coli; conditions: hCRFR1α expressed in E. coli, [^125I-Tyr^0,Glu^1,Nle^17]-sauvagine
Protocol: (§2) The incubation was performed at room temp for 90–120 min, at which time the plates were aspirated and each well was washed with 2×100 µl assay buffer, dried and counted in a γ-counter. Each assay included at least triplicate wells for each concentration, and the assays were repeated at least twice (except where indicated).

mCRFR2β [4] = molecular target: T2, mCRFR2β; experiment: Binding of labeled sauvagine, mCRFR2β in E. coli; conditions: mCRFR2β expressed in E. coli, [^125I-Tyr^0,Glu^1,Nle^17]-sauvagine
Protocol: as §2

hCRFR1α [5] = molecular target: T1, hCRFR1α; experiment: Saturation binding of labeled PD-sauvagine, hCRFR1α in E. coli membranes
Protocol: as §1, with “The incubation was performed at room temp for 90-120 min, at which time the plates were aspirated and each well was washed with 2×100 μl assay buffer, dried and counted in a γ-counter. Each assay included at least triplicate wells for each concentration, and the assays were repeated at least twice (except where indicated). […] The saturation” for “The saturation”

mCRFR2β [6] = molecular target: T2, mCRFR2β; experiment: Saturation binding of labeled PD-sauvagine, mCRFR2β in E. coli membranes
Protocol: as §1, with “The incubation was performed at room temp for 90-120 min, at which time the plates were aspirated and each well was washed with 2×100 μl assay buffer, dried and counted in a γ-counter. Each assay included at least triplicate wells for each concentration, and the assays were repeated at least twice (except where indicated). […] The saturation” for “The saturation”

hCRFR1α [7] = molecular target: T1, hCRFR1α; experiment: Binding of labeled Ucn1, hCRFR1α in E. coli; conditions: data not shown
mCRFR2β [8] = molecular target: T2, mCRFR2β; experiment: Binding of labeled Ucn1, mCRFR2β in E. coli; conditions: data not shown
CRFR1 / CRFR2 = conditions: introduction; cited from earlier work
Excerpt: In most vertebrates there are two highly conserved tissue-specifically expressed CRFRs, designated type 1 [15] and type 2 [16], encoded by different genes and approximately 70% identical to each other at the amino acid level. CRFR1 is relatively more abundant in the nervous system, including the pituitary, while CRFR2 is particularly expressed in the heart, skeletal muscle, and gastrointestinal tract. […] The main type 1 isoform in human, ra ...

hCRFR1α [9] = molecular target: T1, hCRFR1α; experiment: Competitive displacement of labeled astressin, hCRFR1α in E. coli membranes; assay type: binding; conditions: E. coli membranes (Figure 11A)
Protocol: as §1, with “The incubation was performed at room temp for 90-120 min, at which time the plates were aspirated and each well was washed with 2×100 μl assay buffer, dried and counted in a γ-counter. Each assay included at least triplicate wells for each concentration, and the assays were repeated at least twice (except where indicated). […] The saturation” for “The saturation”

ECD-1s of the CRFRs = conditions: cited from earlier work
Excerpt: Further, the CRFRs' coupling to G-proteins in mammalian cells is important for the high affinity binding of agonists, such as sauvagine and CRF, ...

[10] = listed as labeled agonist sauvagine
[11] = labeled PD-sauvagine versus labeled astressin, printed with ref [55]
[12] = nanomolar concentrations, Kd not determined (Figure S3)

T2 sequence (Q60748 25-431 isoform Q60748-2): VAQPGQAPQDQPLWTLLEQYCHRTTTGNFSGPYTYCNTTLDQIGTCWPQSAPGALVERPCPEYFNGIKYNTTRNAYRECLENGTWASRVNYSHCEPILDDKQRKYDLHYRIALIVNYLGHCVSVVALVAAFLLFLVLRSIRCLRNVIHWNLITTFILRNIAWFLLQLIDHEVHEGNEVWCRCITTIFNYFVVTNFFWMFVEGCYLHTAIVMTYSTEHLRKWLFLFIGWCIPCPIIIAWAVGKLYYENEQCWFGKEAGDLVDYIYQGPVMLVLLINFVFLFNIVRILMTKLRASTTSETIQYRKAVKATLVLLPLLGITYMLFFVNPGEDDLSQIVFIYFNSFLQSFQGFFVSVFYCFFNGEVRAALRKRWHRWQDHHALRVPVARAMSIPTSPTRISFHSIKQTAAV

CCCCN(CC)c1nc(C)nc2c1c(C)c(C)n2-c1c(C)cc(C)cc1C [antalarmin]
Displacement of bound labeled PD-sauvagine (hCRFR1α [1]): displaces labeled PD-sauvagine bound to hCRFR1α (Figure 14) in a dose dependent manner; also recorded: competitively displaces labeled PD-sauvagine bound to a small percentage of the hCRFR1α expressed in E. coli membranes | Binding site (CRFR1): binds to a site defined by residues in transmembrane domains 3 and 5 of CRFR1

CC[C@H](C)[C@H](NC(=O)[C@H](CO)NC(=O)[C@H](CC(C)C)NC(=O)[C@@H]1CCCN1C(=O)[C@@H]1CCCN1C(=O)[C@H](CC(=O)O)NC(=O)[C@@H](N)CC(=O)O)C(=O)N[C@@H](CC(=O)O)C(=O)N[C@@H](CC(C)C)C(=O)N[C@H](C(=O)N[C@@H](Cc1ccccc1)C(=O)N[C@@H](Cc1c[nH]cn1)C(=O)N[C@@H](CC(C)C)C(=O)N[C@@H](CC(C)C)C(=O)N[C@@H](CCCNC(=N)N)C(=O)N[C@H](C(=O)N[C@@H](CC(C)C)C(=O)N[C@@H](CC(C)C)C(=O)N[C@@H](CCC(=O)O)C(=O)N[C@@H](CC(C)C)C(=O)N[C@@H](C)C(=O)N[C@@H](CCCNC(=N)N)C(=O)N[C@H](C(=O)N[C@@H](CCC(N)=O)C(=O)N[C@@H](CO)C(=O)N[C@@H](CCC(N)=O)C(=O)N[C@@H](CCCNC(=N)N)C(=O)N[C@@H](CCC(=O)O)C(=O)N[C@@H](CCCNC(=N)N)C(=O)N[C@@H](C)C(=O)N[C@@H](CCC(=O)O)C(=O)N[C@@H](CCC(N)=O)C(=O)N[C@@H](CC(N)=O)C(=O)N[C@@H](CCCNC(=N)N)C(=O)N[C@H](C(=O)N[C@H](C(=O)N[C@@H](Cc1ccccc1)C(=O)N[C@@H](CC(=O)O)C(=O)N[C@@H](CO)C(=O)N[C@H](C(N)=O)C(C)C)[C@@H](C)CC)[C@@H](C)CC)[C@@H](C)O)[C@@H](C)O)[C@@H](C)O [rUcn1]
Ki (mCRFR2β [2]; read-out: Inhibitory binding constant (Ki)): 11.5 nM

[^125I-Tyr^0,Glu^1,Nle^17]-sauvagine [labeled sauvagine]
Binding of labeled sauvagine (hCRFR1α [3]): fail to bind labeled sauvagine | Binding of labeled sauvagine (hCRFR1α [3]; [10]): do not bind the labeled agonist sauvagine | Binding of labeled sauvagine (mCRFR2β [4]): fail to bind labeled sauvagine | Binding of labeled sauvagine (mCRFR2β [4]; [10]): do not bind the labeled agonist sauvagine

[^125I-Tyr^0,Glu^1]PD-sauvagine [labeled PD-sauvagine]
Binding of labeled PD-sauvagine (hCRFR1α [5]): do bind the other labeled agonist, PD-sauvagine | Number of sites detected (hCRFR1α [5]; [11]): less than that detected by labeled astressin | Saturation of binding (hCRFR1α [5]; [12]): at nanomolar concentrations the binding did not saturate | Binding of labeled PD-sauvagine (mCRFR2β [6]): do bind the other labeled agonist, PD-sauvagine | Number of sites detected (mCRFR2β [6]; [11]): less than that detected by labeled astressin | Saturation of binding (mCRFR2β [6]; [12]): at nanomolar concentrations the binding did not saturate

labeled Ucn1: labeled Ucn1, binding data not shown (DNPSLSIDLTFHLLRTLLELARTQSQRERAEQNRIIFDSV; ends and bridges not checked; also: labeled (label not given here); UniProt P55089 83-122, looked up)
Binding of labeled Ucn1 (hCRFR1α [7]): observed binding of labeled Ucn1 to the receptors | Binding of labeled Ucn1 (mCRFR2β [8]): observed binding of labeled Ucn1 to the receptors

mUcn3: CRFR2-selective ligand, mouse (FTLSLDVPTNIMNILFNIDKAKNLRAKAAANAQLMAQI; ends and bridges not checked; UniProt Q924A4 123-160, looked up)
Displacement of bound labeled astressin (mCRFR2β [2]): does not compete for binding to mCRFR2β | Relative affinity for CRFR1 and CRFR2 (CRFR1 / CRFR2): selective for CRFR2

r/hCRF: CRF is a 41-amino acid (aa) peptide synthesized in the hypothalamus
Relative affinity for CRFR1 and CRFR2 (CRFR1 / CRFR2): tenfold higher affinity for CRFR1 than for CRFR2

sauvagine
Displacement of bound labeled astressin (hCRFR1α [9]): does not displace labeled astressin bound to either receptor | Displacement of bound labeled astressin (mCRFR2β [2]): does not displace labeled astressin bound to either receptor | Binding to ECD-1s (ECD-1s of the CRFRs): does not bind to the isolated ECD-1s
